The text below walks through data of article PMC8952231 (Pharmaceutics, 2022).

The structures appear in SMILES notation.

Data set [1] can be described thus: Randomized, open-label, single-dose crossover pharmacokinetic study; plasma concentrations by LC-MS/MS, non-compartmental analysis. Format: in vivo, human. The settings on record: for Intra-Participant CV% of AUCinf / Intra-Participant CV% of AUClast / Intra-Participant CV% of Cmax: IC vs. FCDP crossover; for AUC(0-inf) / AUC(0-t) / Cmax / Tmax / half-life: male, human, plasma. The text has this: Sixty-three healthy male volunteers (age, 19–45 years; body weight > 50 kg) agreed to participate in the study and signed a written informed consent form. Only male participants were recruited to avoid the potential risk of pregnancy. The participants were considered healthy after a detailed physical examination by physicians involving 12-lead electrocardiographs (ECG), vital sign assessments, and laboratory evaluations, including blood chemistry, hematology, and urinalysis. […] The study protocol was approved (IRB No.2019AN0538, clinicaltrial.gov; NCT05066516) by the Institutional Review Board of Anam Hospital, Korea University Medical Center (Seoul, Korea), and all procedures were conducted following the principles described in the Declaration of Helsinki and Good Clinical Practice guidelines.
This study was conducted as a randomized, open-label, single-dose crossover study. All participants were randomly allocated to group A (period 1: individual components (ICs), period 2: FCDP) or group B (period 1: FCDP, period 2: ICs). […] All medications were biopharmaceutical classification system (BCS) III drugs with high solubility and low permeability. […] For FCDP, microcrystalline cellulose and copovidone were used as major excipients.
On day 1 (the day of each drug administration), serial blood samples were drawn immediately before (0 h) and 0.25, 0.5, 0.75, 1, 1.5, 2, 2.5, 3, 4, 6, 8, 12, 24, 48, and 72 h after each dosing to assess the pharmacokinetics of each drug. The collected samples were centrifuged (at 1977× g, 4 °C) for 15 min, and the extracted plasma samples were stored frozen at −60 °C until they were analyzed.
For dapagliflozin analysis, 100 µL plasma was added to a glass tube containing an internal standard (10 µL of 1 mg/mL dapagliflozin-d5) and 1 mL methanol. The samples were vigorously vortexed and centrifuged at 10,770× g for 3 min. Next, 100 µL of the upper layer was transferred to a polypropylene tube with 10 µL of internal standard (dapagliflozin-d5, Toronto Research, Toronto, ON, Canada) and 300 µL of acetonitrile. After vigorous vortexing and centrifugation at 2191× g for 1 min, 200 µL of the upper layer was transferred to another polypropylene tube with 200 µL of ammonium acetate (0.1%, w/v). A 20 µL aliquot of the solution was finally injected into the LC–MS/MS system; 0.1% ammonium acetate and methanol were used for the mobile phase. The gradient elution mode was applied (methanol proportion ranging between 57.5% and 90% in 5 min) with a constant flow rate of 0.4 mL/min. Dapagliflozin was quantified using the multiple reaction monitoring (MRM) mode. The produced transitions were m/z 426.47 → 166.84 for dapagliflozin and m/z 431.50 → 166.85 for dapagliflozin-d5. The linear function of dapagliflozin concentration ranged from 1 to 400 ng/mL with regression correlation coefficients of the calibration curves (R) greater than 0.999. The intra-day and inter-day CV values were below 15%. The lower limit of quantification (LLOQ) using this method was 1 ng/mL.
Linagliptin-^13C-d3 (TLC Pharmaceutical Standards Ltd., Newmarket, ON, Canada) was used as the internal standard, and 100 µL of plasma was added to a glass tube containing the internal standard (10 µL of 1 mg/mL linagliptin-^13C-d3) and 1 mL methanol. The samples were vigorously vortexed and centrifuged at 10,770× g for 3 min. Next, 100 µL of the upper layer was transferred to a polypropylene tube with 10 µL of the internal standard and 400 µL of methanol. After vigorous vortexing and centrifugation at 2191× g for 1 min, 100 µL of the upper layer was transferred to another polypropylene tube containing 300 µL of formic acid in distilled water (0.1%, w/v). A 20 µL aliquot of the solution was finally injected into the LC–MS/MS system; 0.1% ammonium formate in distilled water and acetonitrile was used as the mobile phase. […] Linagliptin was quantified using MRM mode. […] The intra-day and inter-day CV values were <15%. The LLOQ with this method was 0.04 ng/mL. […]

Data set [2] concerns P-gp. The settings on record: cited from earlier work.
For data set [3] the following is noted: cited from earlier work; for food effect: previous studies.
Data set [4] relates to uridine diphosphate glucuronosyltransferase 1A9. The note with it: cited from earlier work.
Data set [5] relates to SGLT2:SGLT1 receptor. The settings on record: compared with empagliflozin; cited from earlier work.
Data set [6] has as its system cytochrome P450 3A4 enzyme. The settings on record: in humans; cited from earlier work.
Where [7] appears, read: IC: co-administered single oral doses of Forxiga 10 mg and Trajenta 5 mg, fasted healthy males, mean ± SD.
Setting [8] is: IC: co-administered single oral doses of Forxiga 10 mg and Trajenta 5 mg, fasted healthy males, 0 to 72 h, mean ± SD.
Setting [9] is: IC: co-administered single oral doses of Forxiga 10 mg and Trajenta 5 mg, fasted healthy males, median (range).

In the case of `CCOc1ccc(Cc2cc([C@@H]3O[C@H](CO)[C@@H](O)[C@H](O)[C@H]3O)ccc2Cl)cc1` [dapagliflozin], in data set [1] (FCDP: single oral dose IN-C009 (dapagliflozin 10 mg/linagliptin 5 mg), fasted healthy males, mean ± SD), the CL/F turned out to be 20.01 ± 3.6 L/h. Further, in data set [1], the “Intra-Participant CV% of AUCinf” value is recorded as 7.35%, the “Intra-Participant CV% of AUClast” value turned out to be 7.91% and the “Intra-Participant CV% of Cmax” value was found to be 20.49%. Besides, in data set [1] (setting [7]), the apparent clearance CL/F is 20.67 ± 3.89 L/h, the AUC(0-inf) stood at 500 ± 93.9 ng·h/mL, the Cmax stood at 161 ± 42 ng/mL and the half-life is 11.3 ± 3.39 h. In data set [1] (po, 5 mg), the AUC(0-inf) came to 516 ± 98.3 ng·h/mL, the AUC(0-t) turned out to be 466 ± 99.3 ng·h/mL, the highest level (Cmax) was 168 ± 42.1 ng/mL and the time to peak (Tmax) amounted to 0.75 h. This compound had a half-life in data set [1] (po, 5 mg) of 12.8 ± 3.84 h. In data set [1] (setting [8]), the AUC(0-t) turned out to be 456 ± 92.8 ng·h/mL. Besides, in data set [1] (setting [9]), the Tmax was found to be 0.75 h. Moreover, in data set [2] (in vitro studies), the P-gp inhibitor status result is “not an inhibitor” and the P-gp substrate status result is on record as “weak substrate”. Also, in data set [3], the “half-life (t1/2)” value is 8.1 to 12.2 h and the food effect result was “no possible food effect”. In data set [4], the “fraction metabolized by uridine diphosphate glucuronosyltransferase 1A9” value is reported as “approximately 65%”. Further, the “SGLT2:SGLT1 receptor selectivity” value in data set [5] is given as “lower SGLT2:SGLT1 receptor selectivity”.

For the compound `CC#CCn1c(N2CCC[C@@H](N)C2)nc2c1c(=O)n(Cc1nc(C)c3ccccc3n1)c(=O)n2C` [linagliptin], in data set [1], the “Intra-Participant CV% of AUCinf” value was 12.67%, the “Intra-Participant CV% of AUClast” value is on record as 7.96% and the “Intra-Participant CV% of Cmax” value was determined as 27.58%. Besides, in data set [1] (po, 5 mg), the area under the curve AUC(0-inf) stood at 268 ± 88 ng·h/mL, the exposure AUC(0-t) came out at 157 ± 35.9 ng·h/mL, the Cmax was 4.2 ± 2.01 ng/mL and the time to peak (Tmax) is 1.5 h. The half-life in data set [1] (po, 5 mg) was 54.3 ± 12.3 h. Besides, in data set [1] (setting [8]), the exposure AUC(0-t) was determined as 155 ± 30.4 ng·h/mL. In addition, in data set [1] (setting [7]), the area under the curve AUC(0-inf) was found to be 266 ± 78.7 ng·h/mL, the Cmax amounted to 3.95 ± 1.42 ng/mL and the half-life was 54.9 ± 13.6 h. Besides, the Tmax in data set [1] (setting [9]) stood at 2.5 h. In data set [2] (at the therapeutic levels), the P-gp inhibition result is “does not inhibit P-gp”. Moreover, in data set [2], the “Km of P-gp associated transport” value was 187 µM. For the same compound, the “substrate for P-glycoprotein (P-gp)” value in data set [2] (in humans) is “known substrate”. Besides, in data set [6], the “substrate for cytochrome P450 3A4 enzyme” value is “known substrate”. In data set [3], the oral bioavailability entry was “approximately 30%” and the food effect entry is reported as “no possible food effect”. Also, the kidney excretion in data set [3] (human, in vivo) was 5%. Besides, the “time to reach steady-state level” value in data set [3] (therapeutic dose (5 mg)) is listed as at most 4 days.

As for `N#C[C@@H]1C[C@@H]2C[C@@H]2N1C(=O)[C@@H](N)C12CC3CC(CC(O)(C3)C1)C2` [saxagliptin], in data set [3] (metabolite of saxagliptin), the “half-life, metabolite” value is listed as 3.1 h.
